One test addresses T1, r-NAAA (Rattus norvegicus, UniProt Q5KTC7).
T1 construct: Lysosomal NAAA protein preparation was obtained by homogenizing male Sprague-Dawley rat lungs; tissue Charles River (animals); host or cells: male Sprague-Dawley rat lung, soluble lysosomal fraction
T1 sequence (Q5KTC7 34-362): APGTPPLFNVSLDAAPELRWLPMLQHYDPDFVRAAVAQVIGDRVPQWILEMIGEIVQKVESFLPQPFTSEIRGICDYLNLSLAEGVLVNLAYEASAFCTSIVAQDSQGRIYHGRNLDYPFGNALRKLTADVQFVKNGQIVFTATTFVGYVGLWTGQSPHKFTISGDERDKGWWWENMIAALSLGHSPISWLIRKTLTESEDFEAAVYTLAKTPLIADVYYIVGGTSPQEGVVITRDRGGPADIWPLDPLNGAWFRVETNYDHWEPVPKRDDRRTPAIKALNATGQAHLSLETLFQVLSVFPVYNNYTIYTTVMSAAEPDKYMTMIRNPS
As to the kind of experiment: UPLC/MS r-NAAA assay. The test is classed as biochemical.
Details: not given
How it is done:
Lysosomal NAAA protein preparation was obtained by homogenizing male Sprague-Dawley rat lungs (Charles River) in 20 mM Tris-HCl buffer pH 7.4 containing 0.32M sucrose. […] Supernatants were then centrifuged at 12,000 xg for 30 min at 4° C. Pellets were then resuspended in PBS pH 7.4 and subjected to a freeze/thaw cycle at −80° C. The suspension was finally centrifuged at 105,000×g for 1 h at 4° C. The supernatant was then used in the enzymatic assay.
NAAA protein preparation was pre-incubated with various concentrations of test compounds or vehicle control in 100 mM NaH2PO4/Citrate buffer, 1% Triton-X, 3 mM DTT (pH 4.5) for 30 min at 37° C. Samples were then incubated with heptadecenoylethanolamide (50 μM, Avanti Polar Lipids) at 37° C. for 30 min. The reaction was terminated by addition of cold methanol containing heptadecanoic acid (NuCheck Prep) as internal standard. Samples were then analyzed by UPLC/MS (Acquity, Waters). […] The column temperature was 40° C. Electrospray ionization was in the negative mode, capillary voltage was 0.5 kV, cone voltage was […], desolvation temperature was 500° C. N2 was used as drying gas at a flow rate of 1000 L/hour and a temperature of 500° C. […] Calibration curves were generated using commercial heptadecenoic acid (NuCheck Prep) Inhibition of NAAA activity was calculated as reduction of heptadecenoic acid in the samples compared to vehicle controls. IC50 values were calculated by non-linear regression analysis of log [concentration]/inhibition curves using GraphPad Prism 5 (GraphPad Software Inc., CA—USA) applying a standard slope curve fitting.
In turn, `O=C(N[C@H]1CNC1=O)Oc1ccc(Cc2ccccc2)cc1` [Example 33, (4-Benzylphenyl)-N-[(3S)-2-oxoazetidin-3-yl]-carbamate] had an IC50 of 21000 nM.
On to `O=C(N[C@H]1CNC1=O)OCCOCCC1CCCCC1` [Example 51, 2-(2-Cyclohexylethoxy)-ethyl-N-[(3S)-2-oxoazetidin-3-yl]-carbamate], for which the IC50 is 770 nM.
With `C[C@@H]1NC(=O)[C@@H]1NC(=O)OCCCCC1CCCCC1` [Example 83, 4-Cyclohexylbutyl-N-[(2S,3R)-2-methyl-4-oxo-azetidin-3-yl]-carbamate], it took 4700 nM to reach half-maximal inhibition (IC50).
In the case of `CC(CCCCc1ccccc1)OC(=O)N[C@H]1CNC1=O` (mixture of isomers) [Example 15, [(1S)- and (1R)-(1-Methyl-5-phenyl-pentyl)]-N-[(3S)-2-oxoazetidin-3-yl]-carbamate], the midpoint of inhibition, the IC50, lay at 3900 nM.
Consider `O=C(N[C@H]1CNC1=O)OCc1ccc(C2CCCC2)cc1` [Example 55, (4-Cyclopentylphenyl)-methyl-N-[(3S)-2-oxoazetidin-3-yl]-carbamate], for which it took 31 nM to reach half-maximal inhibition (IC50).
On the same count and under the same terms, to `CCCCCCCOC(=O)N[C@@H]1CNC1=O` [Example 2, Heptyl-N-[(3R)-2-oxoazetidin-3-yl]-carbamate] belongs 66000 nM; to `O=C(N[C@H]1CNC1=O)OCCCC1CCCCC1` [Example 18, 3-Cyclohexylpropyl-N-[(3S)-2-oxoazetidin-3-yl]-carbamate], 40 nM.
Regarding `O=C(N[C@H]1CNC1=O)OCCOCC1CCCCC1` [Example 49, 2-(Cyclohexylmethoxy)-ethyl-N-[(3S)-2-oxoazetidin-3-yl]-carbamate], the IC50 was 1650 nM.
On the same count and under the same terms, next, `CCCCc1ccc(COC(=O)N[C@H]2CNC2=O)cc1` [Example 26, (4-Butylphenyl)-methyl-N-[(3S)-2-oxoazetidin-3-yl]-carbamate]: 46 nM; `Cc1cccc(C)c1CCCCOC(=O)N[C@H]1CNC1=O` [Example 14, 4-(2,6-Dimethylphenyl)-butyl-N-[(3S)-2-oxoazetidin-3-yl]-carbamate]: 8100 nM.
`Cc1ccccc1-c1ccc(COC(=O)N[C@H]2CNC2=O)cc1` [Example 40, [4-(o-Tolyl)-phenyl]-methyl-N-[(3S)-2-oxoazetidin-3-yl]-carbamate] had an IC50 of 510 nM.
With `CC(C)(C)c1ccc(COC(=O)N[C@H]2CNC2=O)cc1` [Example 57, (4-tert-Butylphenyl)-methyl-N-[(3S)-2-oxoazetidin-3-yl]-carbamate], the IC50 turned out to be 180 nM.
The compound `O=C(N[C@H]1CNC1=O)OCc1ccc(OC2CCCCC2)cc1` [Example 64, [4-(Cyclohexoxy)-phenyl]-methyl-N-[(3S)-2-oxoazetidin-3-yl]-carbamate] returned an IC50 of 160 nM.
On the same count and under the same terms, to `O=C(N[C@H]1CNC1=O)OC1CCC(Cc2ccccc2)CC1` (mixture of isomers) [Example 7, (1s,4R) and (1r,4S)-(4-Benzylcyclohexyl)-N-[(3S)-2-oxoazetidin-3-yl]-carbamate] belongs 6600 nM.
Compound `Cc1ccccc1CCCCOC(=O)N[C@H]1CNC1=O` [Example 29, 4-(o-Tolyl)-butyl-N-[(3S)-2-oxoazetidin-3-yl]-carbamate] gave an IC50 of 2000 nM.
Compound `O=C(N[C@H]1CNC1=O)OCCCCC1CCCC1` [Example 20, 4-Cyclopentylbutyl-N-[(3S)-2-oxoazetidin-3-yl]-carbamate] yielded an IC50 of 48 nM.
Still for that read-out and setting: next, `CCCCCCCCOC(=O)N[C@H]1CNC1=O` [Example 24, Octyl-N-[(3S)-2-oxoazetidin-3-yl]-carbamate]: 16 nM.
Compound `O=C(N[C@@H]1CNC1=O)OCCCCCc1ccccc1` [Example 4, 5-Phenylpentyl-N-[(3R)-2-oxoazetidin-3-yl]-carbamate] registered a concentration for half-maximal inhibition (IC50) of 18700 nM.
In turn, `O=C(N[C@H]1CNC1=O)OCCc1ccc(-c2ccccc2)cc1` [Example 36, 2-(4-Phenylphenyl)-ethyl-N-[(3S)-2-oxoazetidin-3-yl]-carbamate] returned an IC50 of 5050 nM.
Compound `O=C(N[C@H]1CNC1=O)OC1CCC(=Cc2ccccc2)CC1` (stereo partly drawn) [Example 8, (R,E) and (S,Z)-(4-Benzylidenecyclohexyl)-N-[(3S)-2-oxoazetidin-3-yl]-carbamate] yielded an IC50 of 5700 nM.
Turning to `CCc1ccc(CCCCOC(=O)N[C@H]2CNC2=O)cc1` [Example 39, 4-(4-Ethylphenyl)-butyl-N-[(3S)-2-oxoazetidin-3-yl]-carbamate], half-maximal inhibition (IC50) was put at 1000 nM.
In turn, `O=C(N[C@H]1CNC1=O)OCCCCCc1ccccc1` [Example 3, 5-Phenylpentyl-N-[(3S)-2-oxoazetidin-3-yl]-carbamate] showed an IC50 of 620 nM.
In the case of `Cc1cc(COC(=O)N[C@H]2CNC2=O)ccc1-c1ccccc1` [Example 44, (3-Methyl-4-phenyl-phenyl)-methyl-N-[(3S)-2-oxoazetidin-3-yl]-carbamate], 590 nM corresponded to half-maximal inhibition (IC50).
Take `Cc1ccccc1-c1ccc(COC(=O)N[C@H]2CNC2=O)cc1C` [Example 41, [3-Methyl-4-(o-tolyl)-phenyl]-methyl-N-[(3S)-2-oxoazetidin-3-yl]-carbamate]: the IC50 was 910 nM.
The same measure, in the same setting: next, `CC(C)(CCCCc1ccccc1)OC(=O)N[C@H]1CNC1=O` [Example 16, (1,1-Dimethyl-5-phenyl-pentyl)-N-[(3S)-2-oxoazetidin-3-yl]-carbamate]: 8000 nM; `O=C(N[C@H]1CNC1=O)OCCCCCC1CCCCC1` [Example 19, 5-Cyclohexylpentyl-N-[(3S)-2-oxoazetidin-3-yl]-carbamate]: 58 nM.
As to `O=C(N[C@H]1CNC1=O)OCC/C=C/c1ccccc1` [Example 11, [(E)-4-Phenylbut-3-enyl]-N-[(3S)-2-oxoazetidin-3-yl]-carbamate], the IC50 came to 6620 nM.
Compound `O=C(N[C@H]1CNC1=O)OCC/C=C\c1ccccc1` [Example 12, [(Z)-4-Phenylbut-3-enyl]-N-[(3S)-2-oxoazetidin-3-yl]-carbamate] had an IC50 of 1600 nM.

Still in this test, the particulars now being: @ 30 μM; read-out: r-NAAA UPLC/MS assay % inhib.
Consider `C#CCCOC(=O)N[C@H]1CNC1=O` [Example 65, But-3-ynyl-N-[(3S)-2-oxoazetidin-3-yl]-carbamate], for which the inhibition at 30 µM turned out to be 20%.

Still in this test, the particulars now being: @100 μM.
Take `C[C@H]1NC(=O)[C@@H]1NC(=O)OCc1ccc(-c2ccccc2)cc1` [Example 81, (4-Phenylphenyl)-methyl-N-[(2R,3R)-2-methyl-4-oxo-azetidin-3-yl]-carbamate]: the “r-NAAA UPLC/MS assay (n.a.)” value was “n.a. (n.a. = <10% inhib. @100 μM)”.
Take `CC1(C)NC(=O)[C@@H]1NC(=O)OCc1ccc(-c2ccccc2)cc1` [Example 90, (4-Phenylphenyl)-methyl-N-[(3R)-2,2-dimethyl-4-oxo-azetidin-3-yl]-carbamate]: the “r-NAAA UPLC/MS assay (n.a.)” value is given as “n.a. (n.a. = <10% inhib. @100 μM)”.
Still for that read-out and setting: next, `CC1(C)NC(=O)[C@@H]1NC(=O)OCCCCC1CCCCC1` [Example 89, 4-Cyclohexylbutyl-N-[(3R)-2,2-dimethyl-4-oxo-azetidin-3-yl]-carbamate]: “n.a. (n.a. = <10% inhib. @100 μM)”; `C[C@H]1NC(=O)[C@H]1NC(=O)OCc1ccc(-c2ccccc2)cc1` [Example 77, (4-Phenylphenyl)-methyl-N-[(2R,3S)-2-methyl-4-oxo-azetidin-3-yl]-carbamate]: “n.a. (n.a. = <10% inhib. @100 μM)”; `O=C(N[C@H]1CNC1=O)OCc1ccccc1C1CCCCC1` [Example 35, (2-Cyclohexylphenyl)-methyl-N-[(3S)-2-oxoazetidin-3-yl]-carbamate]: “n.a. (n.a. = <10% inhib. @100 μM)”.
Consider `CC1(C)NC(=O)[C@H]1NC(=O)OCc1ccc(C2CCCCC2)cc1` [Example 88, (4-Cyclohexylphenyl)-methyl-N-[(3S)-2,2-dimethyl-4-oxo-azetidin-3-yl]-carbamate], for which the “r-NAAA UPLC/MS assay (n.a.)” value is listed as “n.a. (n.a. = <10% inhib. @100 μM)”.

The test is the same for the next values; noted with them: @100 μM; read-out: r-NAAA UPLC/MS assay % inhib.
Turning to `CC1(C)NC(=O)[C@H]1NC(=O)OCCCCC1CCCCC1` [Example 86, 4-Cyclohexylbutyl-N-[(3S)-2,2-dimethyl-4-oxo-azetidin-3-yl]-carbamate], the inhibition at 100 µM amounted to 18%.

The same test, now with this note: read-out: r-NAAA UPLC/MS assay % inhib.
For the compound `O=C(N[C@H]1CNC1=O)OCc1ccc(-c2ccncc2)cc1` [Example 45, [4-(4-Pyridyl)-phenyl]-methyl-N-[(3S)-2-oxoazetidin-3-yl]-carbamate], the inhibition at 30 µM is 48%.
The same measure, in the same setting: next, `O=C(N[C@H]1CNC1=O)OCc1cccc(-c2ccccc2)c1` [Example 62, (3-Phenylphenyl)-methyl-N-[(3S)-2-oxoazetidin-3-yl]-carbamate]: 45%.

By IC50 is commonly meant the concentration at which inhibition is half-maximal. Lower therefore signals inhibition by little substance.

Values taken from US9828338B2, “Carbamate derivatives of lactam based N-acylethanolamine acid amidase (NAAA) inhibitors” (The Regents of the University of California, priority 2013, dated 2017).
